The subject of data set [1] is human epithelial carcinoma cell line A431. As to the kind of experiment: Cytotoxicity assay (sulphorodamine B test), A431. It counts as cell-based. As for the experimental part:
(§1) Tumour cells were seeded in 96-well tissue culture plates at approximately 10% confluence and were allowed to attach and recover for at least 24 h. Varying concentrations of the drugs were then added to each well to calculate their IC50 value (the concentration which inhibits the 50% of cell survival). The plates were incubated at 37° C. for 72 h. At the end of the treatment, the plates were washed by removal of the supernatant and addition of phosphate buffered saline (PBS) 3 times. 200 μl PBS and 50 μl of cold 80% trichloroacetic acid (TCA) were added. The plates were incubated on ice for at least 1 h. TCA was removed, the plates were washed 3 times by immersion in distilled water and dried on paper and at 40° C. for 5 min. Then 200 μl of 0.4% sulphorodamine B in 1% acetic acid were added. The plates were incubated at RT for 30 min. Sulphorodamine B was removed, the plates were washed by immersion in 1% acetic acid for 3 times, then they were dried on paper and at 40° C. for 5 min. Then, 200 μl Tris 10 mM were added, the plates were kept under stirring for 20 min. The cell survival was determined as optical density by a Multiskan spectrofluorimeter at 540 nm. The amount of cells killed was calculated as the percentage decrease in sulphorodamine B binding compared with control cultures.
(§2) The IC50 values were calculated with the “ALLFIT” program.
The antiproliferative activity of novel Hsp90 inhibitors was evaluated on NCI-H460 non-small cell lung carcinoma cells and on a human epithelial carcinoma cell line A431.
(§3) The antiproliferative IC50 was evaluated as drug concentration required for 50% reduction of cell growth as compared with untreated controls after 72-h exposure to the drug. The IC50±SD values reported were calculated by ALLFIT program.

Data set [2] concerns NCI-H460 non-small cell lung carcinoma cells. As to the kind of experiment: Cytotoxicity assay (sulphorodamine B test), NCI-H460. It counts as cell-based. As for the experimental part: To evaluate the effect of the compounds on cells survival, the sulphorodamine B test was used. To test the effects of the compounds on cell growth, NCI-H460 non-small cell lung carcinoma cells were used. Tumour cells were grown in RPMI 1640 containing 10% fetal bovine serum (GIBCO).
as §1, §2, §3

The target of a further data set is T1, Hsp90 (Homo sapiens, UniProt P07900).
T1 construct: purchased Stressgen SPP-776
As to the kind of experiment: Fluorescence polarization (FP) binding assay, displacement of GM-BODIPY. The settings on record: GM-BODIPY tracer, 125 nM Hsp90, 4 h at 4° C.; read-out: F.P. binding assay IC50. The method, then: Fluorescence Polarization (FP)
GM-BODIPY (PerkinElmer, CUSN60342000MG) was previously dissolved in DMSO to obtain 10 mM stock solutions and kept at −20° C. until use.
The compounds were previously dissolved in DMSO to obtain stock solutions and kept at −20° C. The day of experiment, the compounds were prepared by serial dilutions in HFB. Before each use, 0.1 mg/ml Bovine Gamma globulin and 2 mM DTT were freshly added.
The plate was mixed on a shaker at 4° C. for 4 hours, and the FP values in mP (millipolarization units) were recorded. […] Curve fitting was performed using Prism GraphPad software program (GraphPad software, Inc., San Diego, Calif.).
Curve fitting was performed using Prism GraphPad software program (GraphPad software, Inc., San Diego, Calif.).

[3] abbreviates: Homo sapiens, A-431, 72-h exposure.
The mark [4] stands for this setting: Homo sapiens, NCI-H460, 72-h exposure.

Structures can show the parent of a compound that is named as a salt.

What is called IC50 is the concentration at which inhibition is half-maximal. Take “5-(2,4-dihydroxy-5-isopropyl-phenyl)-4-(4-morpholin-4-yl-methyl-benzoyl amino)-isoxazole-3-carboxylic acid ethylamide hydrochloride [Example 18]”: the IC50 (in data set [1] (72-h exposure); in data set [2] (72-h exposure); on Hsp90) was below 100 nM in each case.
In the case of `CCNC(=O)c1noc(-c2cc(Cl)c(O)cc2O)c1NC(C)=O` [Example 1, 4-acetylamino-5-(5-chloro-2,4-dihydroxy-phenyl)-isoxazole-3-carboxylic acid ethylamide], the values for the IC50 (in data set [1] (setting [3]); in data set [2] (setting [4]); on Hsp90) were 1000 to 10000 nM, 1000 to 10000 nM and below 100 nM, respectively.
Consider `CCNC(=O)c1noc(-c2cc(Cl)c(O)cc2O)c1NC(=O)c1ccc(OC)cc1` [Example 2, 5-(5-chloro-2,4-dihydroxy-phenyl)-4-(4-methoxy-benzoylamino)-isoxazole-3-carboxylic acid ethylamide], for which the IC50 was in the range of 100 to 1000 nM in data set [1] (setting [3]), 1000 to 10000 nM in data set [2] (setting [4]) and 100 to 1000 nM on Hsp90.
For the molecule `CCNC(=O)c1noc(-c2cc(Cl)c(O)cc2O)c1NC(=O)c1ccc(OC)c(OC)c1` [Example 3, 5-(5-chloro-2,4-dihydroxy-phenyl)-4-(3,4-dimethoxy-benzoylamino)-isoxazole-3-carboxylic acid ethylamide], the IC50 in data set [1] (setting [3]) fell in the range of 100 to 1000 nM; in data set [2] (setting [4]) it was 1000 to 10000 nM; on Hsp90, 100 to 1000 nM.
`CCNC(=O)c1noc(-c2cc(Cl)c(O)cc2O)c1NC(=O)c1cc(OC)c(OC)c(OC)c1` [Example 4, 5-(5-chloro-2,4-dihydroxy-phenyl)-4-(3,4,5-trimethoxy-benzoylamino)-isoxazole-3-carboxylic acid ethylamide]: the IC50 (in data set [1] (setting [3]); in data set [2] (setting [4]); at Hsp90) was 100 to 1000 nM each time.
On to `CCNC(=O)c1noc(-c2cc(Cl)c(O)cc2O)c1NC(=O)C(C)(C)C` [Example 5, 5-(5-chloro-2,4-dihydroxy-phenyl)-4-(2,2-dimethyl-propionylamino)-isoxazole-3-carboxylic acid ethylamide], for which the IC50 in data set [1] (setting [3]) was below 100 nM; in data set [2] (setting [4]), 100 to 1000 nM; on Hsp90, below 100 nM.
With `CCNC(=O)c1noc(-c2cc(Cl)c(O)cc2O)c1NC(=O)C12CC3CC(CC(C3)C1)C2` [Example 6, 4-[(adamantane-1-carbonyl)-amino]-5-(5-chloro-2,4-dihydroxy-phenyl)-isoxazole-3-carboxylic acid ethylamide], the IC50 (in data set [1] (setting [3]); in data set [2] (setting [4]); at Hsp90) was 100 to 1000 nM in each case.
For the molecule `C=CC(=O)Nc1c(C(=O)NCC)noc1-c1cc(Cl)c(O)cc1O` [Example 7, 4-acryloylamino-5-(5-chloro-2,4-dihydroxy-phenyl)-isoxazole-3-carboxylic acid ethylamide], the IC50 in data set [1] (setting [3]) was 100 to 1000 nM; in data set [2] (setting [4]), 1000 to 10000 nM; at Hsp90, 100 to 1000 nM.
Turning to `CCNC(=O)c1noc(-c2cc(Cl)c(O)cc2O)c1NC(=O)c1sccc1C` [Example 8, 5-(5-chloro-2,4-dihydroxy-phenyl)-4-[(3-methyl-thiophene-2-carbonyl)-amino]-isoxazole-3-carboxylic acid ethylamide], the IC50 in data set [1] (setting [3]) was below 100 nM; in data set [2] (setting [4]) it was 100 to 1000 nM; on Hsp90, below 100 nM.
For the molecule `CCNC(=O)c1noc(-c2cc(Cl)c(O)cc2O)c1NC(=O)CCN1CCOCC1` [Example 9, 5-(5-chloro-2,4-dihydroxy-phenyl)-4-(3-morpholin-4-yl-propionylamino)-isoxazole-3-carboxylic acid ethylamide], the IC50 (in data set [1] (setting [3]); in data set [2] (setting [4]); at Hsp90) was 100 to 1000 nM each time.
As to `CCNC(=O)c1noc(-c2cc(Cl)c(O)cc2O)c1NC(=O)c1ccc(Br)cc1` [Example 10, 4-(4-bromo-benzoylamino)-5-(5-chloro-2,4-dihydroxy-phenyl)-isoxazole-3-carboxylic acid ethylamide], the values for the IC50 (in data set [1] (setting [3]); in data set [2] (setting [4]); on Hsp90) were 100 to 1000 nM, 1000 to 10000 nM and 100 to 1000 nM, respectively.
Take `CCNC(=O)c1noc(-c2cc(C(C)C)c(O)cc2O)c1NC(=O)c1ccc(OC)cc1` [Example 11, 5-(2,4-dihydroxy-5-isopropyl-phenyl)-4-(4-methoxy-benzoylamino)-isoxazole-3-carboxylic acid ethylamide]: the IC50 in data set [2] (setting [4]) was below 100 nM; at Hsp90 it was 100 to 1000 nM.
As to `CCNC(=O)c1noc(-c2cc(C(C)C)c(O)cc2O)c1NC(C)=O` [Example 12, 4-acetylamino-5-(2,4-dihydroxy-5-isopropyl-phenyl)-isoxazole-3-carboxylic acid ethylamide], the IC50 (in data set [2] (setting [4]); on Hsp90) was below 100 nM each time.
Consider `CCNC(=O)c1noc(-c2cc(C(C)C)c(O)cc2O)c1NC(=O)C(C)(C)C` [Example 13, 5-(2,4-dihydroxy-5-isopropyl-phenyl)-4-(2,2-dimethyl-propionylamino)-isoxazole-3-carboxylic acid ethylamide], for which the IC50 (in data set [2] (setting [4]); at Hsp90) was below 100 nM throughout.
Turning to `CCNC(=O)c1noc(-c2cc(C(C)C)c(O)cc2O)c1NC(=O)c1sccc1C` [Example 14, 5-(2,4-dihydroxy-5-isopropyl-phenyl)-4-[(3-methyl-thiophene-2-carbonyl)-amino]-isoxazole-3-carboxylic acid ethylamide], the IC50 (in data set [1] (setting [3]); in data set [2] (setting [4]); at Hsp90) was below 100 nM throughout.
Take `CCNC(=O)c1noc(-c2cc(C(C)C)c(O)cc2O)c1NC(=O)CCN1CCOCC1` [Example 15, 5-(2,4-dihydroxy-5-isopropyl-phenyl)-4-(3-morpholin-4-yl-propionylamino)-isoxazole-3-carboxylic acid ethylamide]: the IC50 (in data set [2] (setting [4]); on Hsp90) was 100 to 1000 nM in each case.
For the molecule `CCNC(=O)c1noc(-c2cc(C(C)C)c(O)cc2O)c1NC(=O)CCN1CCN(C)CC1` [Example 16, 4-(3-(4-methylpiperazin-1-yl)propanamido)-N-ethyl-5-(2,4-dihydroxy-5-isopropylphenyl)-isoxazole-3-carboxamide], the figures for the IC50 (in data set [1] (setting [3]); in data set [2] (setting [4]); on Hsp90) were 100 to 1000 nM, 1000 to 10000 nM and 100 to 1000 nM, respectively.
Consider `CCNC(=O)c1noc(-c2cc(C(C)C)c(O)cc2O)c1NC(=O)C1CCC(OC)CC1` (stereo not drawn) [Example 23, 5-(2,4-dihydroxy-5-isopropyl-phenyl)-4-[(4-methoxy-cyclohexanecarbonyl)-amino]-isoxazole-3-carboxylic acid ethylamide], for which the IC50 (in data set [2] (setting [4]); on Hsp90) was below 100 nM in each case.
Turning to `CCNC(=O)c1noc(-c2cc(C(C)C)c(O)cc2O)c1NC(=O)C1CCC(C(C)(C)C)CC1` (stereo not drawn) [Example 24, 4-[(4-tert-butyl-cyclohexanecarbonyl)-amino]-5-(2,4-dihydroxy-5-isopropyl-phenyl)-isoxazole-3-carboxylic acid ethylamide], the results for the IC50 (in data set [2] (setting [4]); on Hsp90) were 100 to 1000 nM and below 100 nM, respectively.
On to `CCNC(=O)c1noc(-c2cc(C(C)C)c(O)cc2O)c1NC(=O)[C@H]1CC[C@H](N)CC1` [Example 25, 4-[(trans-4-amino-cyclohexanecarbonyl)-amino]-5-(2,4-dihydroxy-5-isopropyl-phenyl)-isoxazole-3-carboxylic acid ethylamide hydrochloride], for which the IC50 was 1000 to 10000 nM in data set [2] (setting [4]) and below 100 nM on Hsp90.
In the same order, the values of `CCNC(=O)c1noc(-c2cc(C(C)C)c(O)cc2O)c1NC(=O)[C@H]1CC[C@H](CN)CC1` [Example 26, 4-[(trans-4-aminomethyl-cyclohexanecarbonyl)-amino]-5-(2,4-dihydroxy-5-isopropyl-phenyl)-isoxazole-3-carboxylic acid ethylamide hydrochloride] are 1000 to 10000 nM and below 100 nM.
Regarding `COc1ccc(C(=O)Nc2c(C(=O)N3CC(F)(F)C3)noc2-c2cc(Cl)c(O)cc2O)cc1` [Example 34, 4-(4-methoxybenzamido)-5-(5-chloro-2,4-dihydroxyphenyl)-isoxazol-3-yl-(3,3-difluoroazetidin-lyl)-methanone], the IC50 in data set [1] (setting [3]) and in data set [2] (setting [4]) was above 10000 nM each time.

Source of the values: US8383616B2, “Aryl isoxazole compounds with antitumoural activities” (Sigma-Tau Industrie Farmaceutiche Riunite SpA, priority 2008, dated 2013).
